Data from patent publication EP1526135A1, “Azabenzodiazepines as pde4 inhibitors” (Warner-Lambert Company LLC, priority 2003, dated 2005).

Tested on: type 4 phosphodiesterases
Assay: Inhibition of type 4 phosphodiesterase enzymatic activity (cytosolic preparation from U937 cells)
Assay type: biochemical
Conditions: PDE4 from cytosolic preparation of human cell line U937; inhibitor concentration range 0.1 to 100 µM
Procedure: The capacity of the compounds of formula (I) of the invention to inhibit cyclic nucleotide phosphodiesterases is evaluated by measuring their IC50 (concentration needed to inhibit 50% of the enzymatic activity). In the case of PDE4 enzymes, this value is compared to the IC50 value for rolipram, a reference inhibitor for PDE4 enzymes.
The type 4 phosphodiesterases are obtained from a cytosolic preparation extracted from a cell line of human origin, U937, according to the method adapted from T. J. Torphy et al., 1992, J. Pharm. Exp. Ther. 263: 1195-1205.
The measurement of the enzymatic activity for the various types of PDE, and in particular the PDE4 enzymes, is carried out according to a method adapted from W. J. Thomson et al. 1979, Advances in Cyclic Nucleotide Research, Vol. 10: 69-92, ed. G. Brooker et al. Raven Press, NY.
For the determination of the IC50 value, the enzymatic activity is measured in the presence of the inhibitor in a concentration range from 0.1 to 100 µM.

Structure (SMILES)	IC50 [µM]
COc1cc2c3c(n1)C(c1ccccc1)=NC(NC(=O)c1cccnc1)C(=O)N3CC2 (racemic) [racemate of compound of Example 1, N-(4-Methoxy-9-oxo-6-phenyl-1,2,8,9-tetrahydro-5,7,9a-triaza-benzo[cd]azulen-8-yl)-nicotinamide]	6.1
COc1cc2c3c(n1)C(c1ccccc1)=NC(NC(=O)c1cccnc1)C(=O)N3CC2 (stereo not drawn) [first enantiomer (Rt=5.79 min) of compound of Example 1, N-(4-Methoxy-9-oxo-6-phenyl-1,2,8,9-tetrahydro-5,7,9a-triaza-benzo[cd]azulen-8-yl)-nicotinamide]	4.3
COc1cc2c3c(n1)C(c1ccccc1)=NC(NC(=O)c1cccnc1)C(=O)N3CC2 (stereo not drawn) [second enantiomer (Rt = 8.15 min) of compound of Example 1, N-(4-Methoxy-9-oxo-6-phenyl-1,2,8,9-tetrahydro-5,7,9a-triaza-benzo[cd]azulen-8-yl)-nicotinamide]	73
